Where “and” joins values, the source holds several entries; their conditions need not be identical. Equal entries are not always repeated. Entries after “also recorded” stand apart in the source; their conditions may differ. Where two headings read alike, the source gives them in different places. Where no end group is shown, it is not given here. [ ]: non-standard residue; d: D form. The star is where a group is joined. pNA = O=[N+]([O-])c1ccc(N*)cc1; Cbz = O=C(OCc1ccccc1)*
Legend:
PTP-A [1] = type: biochemical, P. gingivalis; conditions: for Residual activity of PTP-A, %: pH 7.6
DPP IV [2] = type: biochemical, P. gingivalis; conditions: pH 7.6
P. gingivalis = type: cell-based; conditions: for P. gingivalis growth (OD600): 37° C.
PTP-A [3] = type: biochemical, P. gingivalis; conditions: enzyme:substrate 1:100, 3 hours or 24 hours, 200 mM HEPES, pH 7.5, 37° C.; for Cleavage site mediated by PTP-A: 1 μg PTP-A
PTP-A [4] = type: biochemical, P. gingivalis; conditions: 1 mM substrate, 0.2 M HEPES, pH 7.5 at 37° C.
Target sequence in this assay (Q7MUW6 81-732 limits assumed): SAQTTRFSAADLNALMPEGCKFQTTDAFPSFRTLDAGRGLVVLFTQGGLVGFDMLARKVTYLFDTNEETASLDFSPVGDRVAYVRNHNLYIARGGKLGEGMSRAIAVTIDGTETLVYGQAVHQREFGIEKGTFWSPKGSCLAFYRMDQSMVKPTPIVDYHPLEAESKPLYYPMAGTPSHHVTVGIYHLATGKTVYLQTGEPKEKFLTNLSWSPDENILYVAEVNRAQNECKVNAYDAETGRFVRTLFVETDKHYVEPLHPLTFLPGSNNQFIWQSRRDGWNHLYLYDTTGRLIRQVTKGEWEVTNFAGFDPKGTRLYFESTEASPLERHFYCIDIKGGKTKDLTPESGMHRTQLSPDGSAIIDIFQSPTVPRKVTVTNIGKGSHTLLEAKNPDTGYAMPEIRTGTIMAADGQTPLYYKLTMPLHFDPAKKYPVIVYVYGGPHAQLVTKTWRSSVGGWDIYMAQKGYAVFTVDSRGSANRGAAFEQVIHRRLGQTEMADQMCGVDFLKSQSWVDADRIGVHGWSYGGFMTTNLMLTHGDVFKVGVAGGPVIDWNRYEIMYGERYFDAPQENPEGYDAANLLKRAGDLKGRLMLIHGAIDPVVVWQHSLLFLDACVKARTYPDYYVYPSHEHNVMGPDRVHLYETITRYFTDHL

DPP IV [5] = assay: Cleavage specificity of DPP IV on synthetic peptides; type: biochemical, P. gingivalis; conditions: for Cleavage site mediated by DPP IV: same conditions as those used for PTP-A
Method: Enzyme Specificity—Peptides were incubated with 1 μg PTP-A at an enzyme:substrate molar ratio of 1:100 for 3 hours or 24 hours in 50 μl of 200 mM HEPES, pH 7.5, at 37° C., and the reaction stopped by acidification with trifluoroacetic acid. The samples were then subjected to reverse-phase high pressure liquid chromatography using a μBondapak C-18 column (3.9×300 mm) (Waters, Millford, Mass.) and an acetonitrile gradient (0-80% in 0.075% trifluoroacetic acid in 50 min). Each peak, detected at 220 nm, was collected, lyophilized, redissolved in 50% (volume/volume) methanol, 0.1% acetic acid and subjected to analysis by mass spectrometry.
Mass Spectrometry—A Finnigan MAT 95S, sector mass spectrometer (Finnigan MAT, Bremen, Germany) equipped with an electrospray source (ESI) was used operated essentially as described previously (Stenfors, C., et al., (1997) J. Biol. Chem. 272, 5747-5751). Peptides were identified by fitting of the obtained spectra to specific sequences using an Internet application program MsFit available at http://falcon.ludwig.ucl.ac.uk/msfit.html.

PTP-A [6] = type: biochemical, P. gingivalis

## c1cnc2c(c1)ccc1cccnc12 [1,10-orthophenanthroline]
PTP-A [1]
  Residual activity of PTP-A, %: 93% and 100%
DPP IV [2]
  Residual activity of DPP IV, %: 100%

## O=c1oc(Cl)c(Cl)c2ccccc12 [3,4-dichloroisocoumarin]
PTP-A [1]
  Effect on PTP-A amidolytic activity (in words): only a poor inhibitor
  Residual activity of PTP-A, %: 200%
DPP IV [2]
  Residual activity of DPP IV, %: 100%
P. gingivalis
  Growth of P. gingivalis: inhibits growth

## O=C(O)CN(CCN(CC(=O)O)CC(=O)O)CC(=O)O [EDTA]
PTP-A [1]
  Residual activity of PTP-A, %: 100%
DPP IV [2]
  Residual activity of DPP IV, %: 100%

## NC(=O)CI [Iodoacetamide]
PTP-A [1]
  Effect on PTP-A amidolytic activity (in words): stimulated enzyme amidolytic activity about two-fold
  Residual activity of PTP-A, %: 100%
DPP IV [2]
  Residual activity of DPP IV, %: 100%

## CC(=O)N[C@@H](CC(C)C)C(=O)N[C@@H](CC(C)C)C(=O)N[C@H](C=O)CCCNC(=N)N [Leupeptin]
PTP-A [1]
  Effect on PTP-A amidolytic activity (in words): no effect at all
  Residual activity of PTP-A, %: 100%
DPP IV [2]
  Residual activity of DPP IV, %: 20%

## CCN1C(=O)C=CC1=O [N-Ethylmaleimide]
PTP-A [1]
  Effect on PTP-A amidolytic activity (in words): not
  Residual activity of PTP-A, %: 98%
DPP IV [2]
  Residual activity of DPP IV, %: 100%

## Cl.NCCc1ccc(S(=O)(=O)F)cc1 [PEFABLOC SC, 4-(2-aminoethyl)-benzenesulfonyl-fluoride hydrochloride]
PTP-A [1]
  Effect on PTP-A amidolytic activity (in words): total loss of activity
  Residual activity of PTP-A, %: 56%
DPP IV [2]
  Residual activity of DPP IV, %: 100%
P. gingivalis; Pefabloc added at 0.5 mg/ml when the optical density began to increase
  P. gingivalis growth (OD600): decreased growth
P. gingivalis; Pefabloc added at 2.0 mg/ml when the optical density began to increase
  P. gingivalis growth (OD600): decreased growth
P. gingivalis; treatment of cultures in lagphase and early logarithmic growth
  Growth of P. gingivalis: inhibits growth

## O=S(=O)(F)Cc1ccccc1 [Phenylmethanesulfonyl fluoride]
PTP-A [1]
  Effect on PTP-A amidolytic activity (in words): no effect at all

## Ac-Val-Pro-Pro-Gly-Glu-Asp-Ser-Lys (Ac-VPPGEDSK) [Peptide 9]
PTP-A [3]
  Cleavage of peptide by PTP-A (in words): resistance to enzymatic hydrolysis

## Cbz-Ala-Pro-pNA
PTP-A [4]
  Hydrolysis of chromogenic substrate by PTP-A: only H-Ala-Phe-Pro-pNA was hydrolyzed

## Cbz-Gly-Pro-pNA
PTP-A [4]
  Hydrolysis of chromogenic substrate by PTP-A: only H-Ala-Phe-Pro-pNA was hydrolyzed

## H-Ala-Arg-Pro-↓-Ala-D-Lys-amide (H-ARPA[dK]-NH2; SMILES C[C@H](N)C(=O)N[C@@H](CCCNC(=N)N)C(=O)N1CCC[C@H]1C(=O)N[C@@H](C)C(=O)N[C@H](CCCCN)C(N)=O) [Peptide 12]
PTP-A [3]
  Cleavage site mediated by PTP-A: H-Ala-Arg-Pro-↓-Ala-D-Lys-amide

## H-Ala-Phe-Pro-pNA
PTP-A [4]
  Hydrolysis of chromogenic substrate by PTP-A: hydrolyzed

## H-Ala-Pro-↑-Val-Arg-Ser-Leu-Asn-Cys-Thr-Leu-Arg-Asp-Ser-Gln-Gln-Lys (APVRSLNCTLRDSQQK) [Peptide 24]
DPP IV [5]
  Cleavage site mediated by DPP IV: H-Ala-Pro-↑-Val-Arg-Ser-Leu-Asn-Cys-

## H-Arg-Gly-Pro-↓-Phe-Pro-Ile (RGPFPI) [Peptide 11]
PTP-A [3]
  Cleavage site mediated by PTP-A: H-Arg-Gly-Pro-↓-Phe-Pro-Ile

## H-Arg-His-Pro-↓-Lys-Tyr-Lys-Thr-Glu-Leu (RHPKYKTEL) [Peptide 14]
PTP-A [3]
  Cleavage site mediated by PTP-A: H-Arg-His-Pro-↓-Lys-Tyr-Lys-Thr-Glu-Leu

## H-Arg-Pro-Pro-↓-Gly-Phe (RPPGF) [Peptide 2]
PTP-A [3]
  Cleavage site mediated by PTP-A: H-Arg-Pro-Pro-↓-Gly-Phe

## H-Arg-Pro-Pro-↓-Gly-Phe-Ser-Pro-Phe-Arg (RPPGFSPFR) [Peptide 1]
PTP-A [3]
  Cleavage site mediated by PTP-A: H-Arg-Pro-Pro-↓-Gly-Phe-Ser-Pro-Phe-Arg

## H-Arg-Pro-↑-Lys-Pro-↑-Gln-Gln-Phe-Phe-Gly-Leu-Met-NH2 (H-RPKPQQFFGLM-NH2) [Peptide 6]
DPP IV [5]
  Cleavage by DPP IV (in words): found to cleave
  Cleavage site mediated by DPP IV: Pro-↑-Lys; also recorded: Pro-↑-Gln

## H-Gly-Pro-pNA
PTP-A [4]
  Hydrolysis of chromogenic substrate by PTP-A: only H-Ala-Phe-Pro-pNA was hydrolyzed

## H-Gly-Val-Pro-↓-Lys-Thr-His-Leu-Glu-Leu (GVPKTHLEL) [Peptide 15]
PTP-A [3]
  Cleavage site mediated by PTP-A: H-Gly-Val-Pro-↓-Lys-Thr-His-Leu-Glu-Leu

## H-Leu-Pro-↑-Asp-Leu-Asp-Ser-Ser-Leu-Ala-Ser-Ile-Gln-Glu-Leu-Leu-Ser-Pro-Gln-Glu-Pro-Pro-Arg-Pro-Pro-Glu-Ala (LPDLDSSLASIQELLSPQEPPRPPEA) [Peptide 20]
DPP IV [5]
  Cleavage by DPP IV (in words): found to cleave
  Cleavage site mediated by DPP IV: H-Leu-Pro-↑-Asp-Leu-Asp-Ser-Ser-Leu-Ala-

## H-Lys-Arg-Pro-Pro-Gly-Phe-Ser-Pro-Phe-Arg (KRPPGFSPFR; printed: Lys-Arg-Pro-Pro-Gly-Phe-Ser-Pro-Phe-Arg) [Peptide 3]
PTP-A [3]
  Cleavage of peptide by PTP-A (in words): significant exception

## H-Pro-Asn-Pro-↓-Asn-Gln-Gly-Asn-Phe-Ile (PNPNQGNFI) [Peptide 13]
PTP-A [3]
  Cleavage site mediated by PTP-A: H-Pro-Asn-Pro-↓-Asn-Gln-Gly-Asn-Phe-Ile

## H-Pro-pNA
PTP-A [4]
  Hydrolysis of chromogenic substrate by PTP-A: only H-Ala-Phe-Pro-pNA was hydrolyzed

## H-Ser-Pro-↑-Tyr-Ser-Ser-Asp-Thr-Thr (SPYSSDTT) [Peptide 23]
DPP IV [5]
  Cleavage site mediated by DPP IV: H-Ser-Pro-↑-Tyr-Ser-Ser-Asp-Thr-Thr

## H-Val-Glu-Pro-↓-Ile-Pro-Tyr (VEPIPY) [Peptide 10]
PTP-A [3]
  Cleavage site mediated by PTP-A: H-Val-Glu-Pro-↓-Ile-Pro-Tyr

## H-Val-Pro-Pro-↓-Gly-Glu-Asp-Ser-Lys (VPPGEDSK) [Peptide 8]
PTP-A [3]
  Cleavage site mediated by PTP-A: H-Val-Pro-Pro-↓-Gly-Glu-Asp-Ser-Lys

## H-Val-Pro-Pro-↓-Gly-Glu-Asp-Ser-Lys-Glu-Val-Ala-Ala-Pro-His-Arg-Gln (VPPGEDSKEVAAPHRQ) [Peptide 7]
PTP-A [3]
  Cleavage site mediated by PTP-A: H-Val-Pro-Pro-↓-Gly-Glu-Asp-Ser-Lys-Glu-

## H-YRPPGFSPFR [Peptide 4]
PTP-A [3]
  Cleavage of peptide by PTP-A (in words): significant exception

## IGVHGWXYGGFMTINL [SEQ ID NO:24]
DPP IV [5]
  Cleavage by DPP IV (in words): found to cleave

## NH2-SAQTTRFSAADLNALMP (H-SAQTTRFSAADLNALMP; listed as Porphyromonas gingivalis) [SEQ ID NO:23]
DPP IV [5]
  Cleavage by DPP IV (in words): found to cleave

## Val-Pro
PTP-A [1]
  Residual activity of PTP-A, %: 100%
DPP IV [2]
  Residual activity of DPP IV, %: 1%

## albumin
PTP-A [6]
  Cleavage of protein by PTP-A (in words): absence of any proteolytic activity

## gelatin
PTP-A [6]
  Cleavage of protein by PTP-A (in words): absence of any proteolytic activity

## interleukin 6: protein substrate
PTP-A [6]
  Cleavage of protein by PTP-A (in words): able to cleave a tripeptide

## α1-proteinase inhibitor: Human plasma inhibitor
PTP-A [1]
  Effect on PTP-A amidolytic activity (in words): did not affect the enzyme activity
PTP-A [6]
  Cleavage of protein by PTP-A (in words): nor were they cleaved by PTP-A

Reference: US6875851B1 (priority 1999, dated 2005)
